Measured values: patent publication US10021880B2, “Diarylimidazole compound and harmful organism control agent” (Nippon Soda Co., Ltd., priority 2014, dated 2018)
Blank lines part the entries; values can stand above or below the molecule they belong to.

Experiments:
[1] = system: Tetranychus kanzawai; experiment: Efficacy test against Tetranychus kanzawai (spray on kidney bean seedlings); type: in vivo; details: 240 h, sprayed on kidney bean seedlings, adult mortality 10 days after spraying, 25° C., humidity 65%, read-out: mortality rate against Tetranychus kanzawai
Method: (§1) 5 parts of the compound of the present invention, 93.6 parts of dimethyl formamide and 1.4 parts of polyoxyethylene alkylaryl ether were mixed and dissolved to obtain emulsion (I) including 5% of active ingredient.
Kidney bean plants were raised in No. 3 pots and the primary leaves were inoculated with 10 adult female Tetranychus kanzawai. Emulation (I) was diluted with water so that the concentration of the compound of the present invention reaches 125 ppm, followed by spraying the diluted liquid on the kidney bean seedlings. The kidney bean seedlings were then placed in a temperature-controlled room with a temperature of 25° C. and humidity of 65%. Mortality of the adult Tetranychus kanzawai was investigated after 10 days were passed from the spraying, and the insect mortality rate of Tetranychus kanzawai was calculated. The test was repeated twice.

[2] = system: Pseudaletia separate; experiment: Efficacy test against Pseudaletia separate (maize leaf dip); type: in vivo; details: foliar, 144 h, maize leaves soaked 30 seconds, second-instar larvae, after 6 days, 25° C., read-out: insect mortality rate against Pseudaletia separate
Method: as §1
(§2) Emulsion (I) was diluted with water so that the concentration of the compound of the present invention reaches 125 ppm. Maize leaves were soaked in the diluted liquid for 30 seconds. Then the maize leaves were put on Petri dishes, followed by inoculating 5 second-instar larvae of Pseudaletia separate. The Petri dishes were placed in a temperature-controlled room with a temperature of 25° C. and humidity of 60%. Mortality was investigated after 6 days were passed, and the insect mortality rate was calculated. The test was repeated twice.

[3] = system: Plutella xylostella; experiment: Efficacy test against Plutella xylostella (cabbage leaf dip); type: in vivo; details: foliar, 72 h, cabbage leaves soaked 30 seconds, second-instar larvae, after 3 days, 25° C., read-out: mortality rate against Plutella xylostella
Method: as §1
as §2, with “ppm. Cabbage” for “ppm. Maize”, “the cabbage” for “the maize”, “of Plutella xylostella.” for “of Pseudaletia separate.”, “temperature was” for “temperature of”, “after 3” for “after 6”

[4] = system: Spodoptera litura; experiment: Efficacy test against Spodoptera litura (cabbage leaf dip); type: in vivo; details: foliar, 144 h, cabbage leaves soaked 30 seconds, second-instar larvae, after 6 days, 25° C., read-out: insect mortality rate against Spodoptera litura
Method: as §1
as §2, with “Emulation (I)” for “Emulsion (I)”, “ppm. Cabbage” for “ppm. Maize”, “the cabbage” for “the maize”, “of Spodoptera litura.” for “of Pseudaletia separate.”, “temperature was” for “temperature of”

[5] = system: Aphis gossypii; experiment: Efficacy test against Aphis gossypii (root-dipping test); type: in vivo; details: 8 ppm in hydroponic liquid, cucumber, nymphs, after 6 days
Excerpt: as §1
Cucumber plants raised in No. 3 pots were pulled out from the pots, then the soil attached to the roots was washed with tap water, followed by hydroponic-cultivating the cucumber plants by soaking the roots in tap water. The cucumber seedlings were inoculated with nymphs of Aphis gossypii. Emulsion (I) was diluted with water to obtain a diluted liquid with a concentration of 8 ppm of the compound of the present invention. The tap water was replaced with the diluted liquid, and then the hydrophonic-cultivation was continued in a temperature-controlled room with a temperature was 25° C. and humidity of 60%.
After 6 days were passed from the hydrophonic-cultivation in the diluted liquid, mortality of Aphis gossypii was investigated and the insect mortality rate was calculated. The test was repeated twice.

[6] = system: Aphis gossypii; experiment: Efficacy test against Aphis gossypii (spray on cucumber seedlings); type: in vivo; details: sprayed on cucumber seedlings inoculated with nymphs, 4 days after spraying, read-out: mortality rate against Aphis gossypii
Method: as §1
Cucumber plants were raised in No. 3 pots and the first true leaves were inoculated with nymphs of Aphis gossypii. Emulation (I) was diluted with water so that the concentration of the compound of the present invention reaches 125 ppm, followed by spraying the diluted liquid on the cucumber seedlings. The cucumber seedlings were then placed in a temperature-controlled room with a temperature of 25° C. and humidity of 60%. Mortality was investigated after 4 days were passed from the spraying, and the insect mortality rate of Aphis gossypii was calculated. The test was repeated twice.

[7] = system: Culex pipiens; experiment: Efficacy test against Culex pipiens (larvae in chemical solution); type: in vivo; details: 2 ppm in water, after 1 day
Method: as §1
Emulsion (I) was diluted with water so that the concentration of the compound of the present invention reaches 2 ppm to prepare a chemical solution for test. 20 first-instar larvae of Culex pipiens were released into 100 ml of the chemical solution for test, then the number of dead insects was calculated after 1 day was passed, and the insect mortality rate was calculated by the following equation. The test was repeated twice. Insect mortality rate (%)=(number of dead insects/number of sample insects)×100

[8] = system: Musca domestica; experiment: Efficacy test against Musca domestica (treated cube sugar); type: in vivo; details: 100 ppm on cube sugar, after 24 hours, 25° C.
Method: The compound of the present invention was diluted with acetone, followed by dropping to 1 g of cube sugar so that the concentration reaches to 100 ppm. The cube sugar was placed in a plastic cup and 10 adult female Musca domestica were released therein, followed by putting the lid on the cup. The cup was kept at 25° C., the mortality was investigated after 24 hours was passed from the releasing of Musca domestica and the insect mortality rate was calculated by the following equation. The test was repeated twice. Insect mortality rate (%)=(number of dead insects/number of sample insects)×100

Structure (SMILES): Cn1c(-c2ccc(C(F)(F)F)cc2)cnc1-c1ccc(C(F)(F)F)cc1F [Compound 1-4, 2-(2-fluoro-4-(trifluoromethyl)phenyl)-1-methyl-5-(4-(trifluoromethyl)phenyl)-1H-imidazole]
mortality at 125 ppm [1]: ≥ 90%

Structure (SMILES): CCSc1cc(C(F)(F)F)ccc1-c1ncc(-c2ccc(C(F)(F)F)cc2)n1C [Compound 1-7, 2-(2-(ethylsulfanyl)-4-(trifluoromethyl)phenyl)-1-methyl-5-(4-(trifluoromethyl)phenyl)-1H-imidazole]
mortality at 125 ppm [2]: ≥ 80% | mortality at 125 ppm [3]: ≥ 80% | mortality at 125 ppm [4]: ≥ 80%

Structure (SMILES): CCS(=O)(=O)c1cnccc1-c1ncc(-c2ccc(C(F)(F)F)cc2)n1C [Compound 3-1]
insect mortality rate (Aphis gossypii, root-dipping test) [5]: ≥ 80%

Structure (SMILES): CCS(=O)(=O)c1cc(C(F)(F)F)ccc1-c1ncc(-c2ccc(C(F)(F)F)cc2)n1C [Compound 1-3, 2-(2-(ethylsulfonyl)-4-(trifluoromethyl)phenyl)-1-methyl-5-(4-(trifluoromethyl)phenyl)-1H-imidazole]
mortality at 125 ppm [6]: ≥ 80% | mortality at 125 ppm [2]: ≥ 80% | mortality at 125 ppm [3]: ≥ 80% | mortality at 125 ppm [4]: ≥ 80%

Structure (SMILES): CCS(=O)(=O)c1cc(C(F)(F)F)ccc1-c1ncc(-c2ccc(OC(F)(F)F)cc2)n1C [Compound 1-35]
insect mortality rate against the first-instar larvae of Culex pipiens [7]: 100% | insect mortality rate against the adult female Musca domestica [8]: 100%

melting point: 229 to 231 °C
Structure (SMILES): Cn1c(-c2ccc(C(F)(F)F)cc2)c[n+]([O-])c1-c1ccc(C(F)(F)F)cc1F
